Assay: Test for quality and stability over time of compound (III^1) crystals, HPLC peak area content
Assay type: physicochemical
Conditions: HPLC area %
Description: Test for quality and stability over time of tert-butyl N-{2-{4-[(2,4-dioxothiazolidin-5-yl)methyl]phenoxyacetylamino}-5-methoxyphenyl}-N-methylcarbamate (compound (III^1))
Quality of four samples (the crystals obtained in Example 3, the crystals obtained in Example 3 and stored at 40° C. for 40 days, the purified crystals obtained in Example 4 and the purified crystals obtained in Example 4 and stored at 40° C. for 42 days) was analyzed. Quality was analyzed by the following method.
A solution of about 10 mg/L of the compound (III^1) in acetonitrile-water (4:1) was prepared.
About 20 μL of the sample solution was analyzed by high-performance liquid chromatography under the following conditions.
Column: L-column ODS 4.6×250 mm (Chemicals-Evaluation and Research Institute, Japan)
Mobile phase: 0.02 M ammonium acetate solution/acetonitrile mixture (55:45)
Detection wavelength: 220 nm
Measurement temperature: 40° C.
Peak areas were determined from chromatograms, respectively, to provide a content of each component (%) 100× (peak area of each component)/(total peak area of all components).

| Compound | content of component at relative retention time 3.01 (crystals stored at 40° C. for 40 days, immediately after drying 0.05) [%] | content of component at relative retention time 0.46 (crystals stored at 40° C. for 40 days, immediately after drying 0.16) [%] | content of component at relative retention time 0.43 (crystals stored at 40° C. for 40 days, immediately after drying 0.39) [%] | Total of other components (crystals stored at 40° C. for 40 days, immediately after drying 0.54) [%] | content of component at relative retention time 0.21 (crystals stored at 40° C. for 40 days, immediately after drying 0.60) [%] | Total of impurities (crystals stored at 40° C. for 40 days, immediately after drying 1.74) [%] | content of test substance (relative retention time 1.00) (crystals stored at 40° C. for 40 days, immediately after drying 98.26) [%] | content of component at relative retention time 3.01 (purified crystals stored at 40° C. for 42 days, immediately after drying 0.04) [%] | content of component at relative retention time 0.43 (purified crystals stored at 40° C. for 42 days, immediately after drying 0.07) [%] | content of component at relative retention time 0.46 (purified crystals stored at 40° C. for 42 days, immediately after drying 0.08) [%] | content of component at relative retention time 0.21 (purified crystals stored at 40° C. for 42 days, immediately after drying 0.19) [%] | Total of other components (purified crystals stored at 40° C. for 42 days, immediately after drying 0.25) [%] | Total of impurities (purified crystals stored at 40° C. for 42 days, immediately after drying 0.63) [%] | content of test substance (relative retention time 1.00) (purified crystals stored at 40° C. for 42 days, immediately after drying 99.37) [%] |
| --- | --- | --- | --- | --- | --- | --- | --- | --- | --- | --- | --- | --- | --- | --- |
| COc1ccc(NC(=O)COc2ccc(CC3SC(=O)NC3=O)cc2)c(N(C)C(=O)OC(C)(C)C)c1 (centres unmarked) [Crystals of Example 3, tert-Butyl N-{2-{4-[(2,4-dioxothiazolidin-5-yl)methyl]phenoxyacetylamino}-5-methoxyphenyl}-N-methylcarbamate] | 0.05 | 0.48 | 0.32 | 0.56 | 0.63 | 2.04 | 97.96 | – | – | – | – | – | – | – |
| COc1ccc(NC(=O)COc2ccc(CC3SC(=O)NC3=O)cc2)c(N(C)C(=O)OC(C)(C)C)c1 (centres unmarked) [Purified crystals of Example 4, tert-Butyl N-{2-{4-[(2,4-dioxothiazolidin-5-yl)methyl]phenoxyacetylamino}-5-methoxyphenyl}-N-methylcarbamate] | – | – | – | – | – | – | – | 0.03 | 0.07 | 0.09 | 0.26 | 0.20 | 0.65 | 99.35 |

From patent US20080103185A1, “Process for Producing Thiazolidinedione Compound and Production Intermediate Thereof” (DAIICHI SANKYO COMPANY, LIMITED, priority 2005, published 2008)
